Test results from ChEMBL document CHEMBL5303304, “EUbOPEN Chemogenomics Library - IncuCyte” (2023).

Key:
Assay type in all cases: toxicity, cell-based
HEK-293T = assay: Incucyte cell viability with HEK293T; conditions: human, 10 µM, compound concentration 10 uM
Fibroblast = assay: Incucyte cell viability with human fibroblast; conditions: 10 µM, compound concentration 10 uM
U2OS = assay: Incucyte cell viability with U2OS; conditions: human, 10 µM, compound concentration 10 uM
Also: unitless GR value; below 1 slowed growth and below 0 cell loss.

Row | Structure (SMILES) | Growth Rate (HEK-293T; 0 h, replicate number 2) | Growth Rate (HEK-293T; 6 h, replicate number 1) | Growth Rate (Fibroblast; 0 h, replicate number 1) | Growth Rate (Fibroblast; 0 h, replicate number 2) | Growth Rate (Fibroblast; 6 h, replicate number 1) | Growth Rate (Fibroblast; 6 h, replicate number 2) | Growth Rate (Fibroblast; 12 h, replicate number 2) | Growth Rate (Fibroblast; 18 h, replicate number 2) | Growth Rate (Fibroblast; 24 h, replicate number 2) | Growth Rate (U2OS; 6 h, replicate number 1) | Growth Rate (U2OS; 6 h, replicate number 2) | Growth Rate (U2OS; 12 h, replicate number 2) | Growth Rate (U2OS; 18 h, replicate number 2) | Growth Rate (U2OS; 24 h, replicate number 2) | Growth Rate (HEK-293T; 12 h, replicate number 2) | Growth Rate (HEK-293T; 18 h, replicate number 1) | Growth Rate (HEK-293T; 18 h, replicate number 2) | Growth Rate (HEK-293T; 24 h, replicate number 1) | Growth Rate (HEK-293T; 24 h, replicate number 2) | Growth Rate (HEK-293T; 6 h, replicate number 2) | further results
1 | Br.CO[C@H]1CC=C2CCN3CCC4=C(CC(=O)OC4)[C@]23C1 | 0.77 | 0.59 | 0.93 | 0.3 | -1 | 0.8 | 0.64 | 0.7 | 0.72 | 0.39 | 0.78 | 0.77 | 0.87 | 1 |  |  |  |  |  |  | 
2 | Cc1cc(C)cc(C(=O)NOCCCCCC(=O)NO)c1 | 0.89 |  | -0.28 |  |  | -0.16 | 0.86 | 0.23 | 0.51 | 0.62 | 0.86 | 0.58 | 0.5 | 0.22 | 0.82 | 0.12 | 0.44 | 0.14 | 0.28 |  | Growth Rate (HEK-293T; 12 h, replicate number 1): 0.34; Growth Rate (Fibroblast; 12 h, replicate number 1): -0.96; Growth Rate (Fibroblast; 18 h, replicate number 1): -0.74; Growth Rate (Fibroblast; 24 h, replicate number 1): -0.33; Growth Rate (U2OS; 18 h, replicate number 1): 0.71; Growth Rate (U2OS; 24 h, replicate number 1): 0.26
3 | S=c1[nH]nc(-c2cccs2)n1-c1ccccc1 | 0.81 | 0.53 | 0.04 | -0.79 |  | -0.3 |  |  |  |  | 0.93 | 0.8 | 0.87 |  | 0.73 | 0.91 | 0.87 | 0.9 | 0.83 | 0.97 | Growth Rate (HEK-293T; 12 h, replicate number 1): 0.58; Growth Rate (Fibroblast; 12 h, replicate number 1): -0.72; Growth Rate (Fibroblast; 18 h, replicate number 1): -0.25; Growth Rate (Fibroblast; 24 h, replicate number 1): 0.01; Growth Rate (U2OS; 0 h, replicate number 1): 0.53; Growth Rate (U2OS; 18 h, replicate number 1): 0.95
4 | Cn1ncnc1COc1nn2c(-c3cc(F)ccc3F)nnc2cc1C(C)(C)C | 0.38 |  | 0.93 |  |  |  | 0.29 | 0.56 | 0.57 | 0.51 |  | 0.78 | 0.76 | 0.76 | 0.63 | 0.42 | 0.77 | 0.28 | 0.88 | 0.37 | Growth Rate (HEK-293T; 12 h, replicate number 1): 0.42
5 | CC[C@@]1(c2ccccc2)NC(=O)N(Cc2ccccc2)C1=O | 0.93 |  | 0.94 | 0.5 | -0.93 |  | 0.07 | 0.7 | 0.58 | 0.55 |  |  |  | 0.99 | 0.77 | 0.95 | 0.86 | 0.84 | 0.82 |  | Growth Rate (U2OS; 0 h, replicate number 2): -0.81
6 | C=CC(=O)Nc1cccc(C(=O)Nc2ccc(NC(=O)c3cccc(-c4ccn[nH]4)n3)cc2)c1 | 0.5 | 0.54 | 0 |  | -0.7 |  |  |  |  |  |  |  |  | 0.92 | 0.37 | 0.81 | 0.59 |  | 0.55 | 0.82 | Growth Rate (U2OS; 0 h, replicate number 1): -0.99; Growth Rate (U2OS; 0 h, replicate number 2): -0.56
7 | COc1cc(C(C)C)c(Oc2cnc(NC(CO)CO)nc2N)cc1I | 0.85 |  |  | 0.81 | -0.93 | 0.67 | 0.88 | 0.94 |  | 0.05 |  | 1 |  |  | 0.76 |  | 0.82 |  | 0.89 | 0.97 | Growth Rate (Fibroblast; 24 h, replicate number 1): 1; Growth Rate (U2OS; 0 h, replicate number 2): -0.32; Growth Rate (U2OS; 12 h, replicate number 1): 0.93; Growth Rate (U2OS; 18 h, replicate number 1): 0.97; Growth Rate (U2OS; 24 h, replicate number 1): 0.83
